Common to all, as to assay type: functional
Assay [1] relates to Cryptococcus neoformans. The assay can be described thus: Antifungal activity against Cryptococcus neoformans ATCC32045 assessed as inhibition of fungal growth incubated for 72 hrs by broth microdilution method.
A further assay has as its system Candida albicans. The assay can be described thus: Antifungal activity against Candida albicans ATCC10231 assessed as inhibition of fungal growth incubated for 72 hrs by broth microdilution method.
The next assay relates to Aspergillus fumigatus. The experiment in a line: Antifungal activity against Aspergillus fumigatus AS3.3913 assessed as inhibition of fungal growth incubated for 72 hrs by broth microdilution method.
The next assay has as its system Candida tropicalis. The experiment in a line: Antifungal activity against Candida tropicalis ATCC1369 assessed as inhibition of fungal growth incubated for 72 hrs by broth microdilution method.
Assay [2] relates to Cryptococcus neoformans. The assay can be described thus: Fungicidal activity against Cryptococcus neoformans ATCC32045 incubated for 72 hrs.
Assay [3] concerns Cryptococcus neoformans. The experiment in a line: Selectivity ratio of MFC for Cryptococcus neoformans ATCC32045 to MIC for Cryptococcus neoformans ATCC32045.

≈ marks a conversion by molar mass, not a printed value. A value given as a limit tells only on which side of the number the result lay.

As a reminder, the MIC is the least concentration at which growth counts as inhibited. Turning to `CCc1ccc(-c2cc(O)c(O)c(OC)c2)cc1`, the minimum inhibitory concentration (MIC) in the assay on Cryptococcus neoformans [1] was 8 µg/mL (≈ 32.7 µM); with Candida albicans, 32 µg/mL (≈ 131 µM); in the assay with Aspergillus fumigatus it was 64 µg/mL (≈ 262 µM); in the assay with Candida tropicalis it was 32 µg/mL (≈ 131 µM).
With `CCCc1ccc(-c2ccc(-c3cc(O)c(O)c(OC)c3)cc2)cc1`, the minimum inhibitory concentration (MIC) with Cryptococcus neoformans [1] was 4 µg/mL (≈ 12 µM); with Candida albicans, 512 µg/mL (≈ 1530 µM); in the assay on Aspergillus fumigatus, more than 512 µg/mL; in the assay on Candida tropicalis, 64 µg/mL (≈ 191 µM).
Take `CCCCCc1ccc(-c2cc(O)ccc2O)cc1`: the MIC came out at 2 µg/mL (≈ 7.8 µM) in the assay on Cryptococcus neoformans [1], 16 µg/mL (≈ 62.4 µM) in the assay on Candida albicans, 64 µg/mL (≈ 250 µM) in the assay with Aspergillus fumigatus and 16 µg/mL (≈ 62.4 µM) in the assay on Candida tropicalis.
On to `CCc1cccc(-c2cc(O)c(O)c(OC)c2)c1`, for which the minimum inhibitory concentration (MIC) came out at 32 µg/mL (≈ 131 µM) in the assay on Cryptococcus neoformans [1], 128 µg/mL (≈ 524 µM) in the assay with Candida albicans, 128 µg/mL (≈ 524 µM) in the assay with Aspergillus fumigatus and 128 µg/mL (≈ 524 µM) in the assay on Candida tropicalis.
`CCc1cc(CC)cc(-c2cc(O)c(O)c(OC)c2)c1`: the MIC was 8 µg/mL (≈ 29.4 µM) with Cryptococcus neoformans [1], 64 µg/mL (≈ 235 µM) with Candida albicans, 32 µg/mL (≈ 117 µM) in the assay on Aspergillus fumigatus and 16 µg/mL (≈ 58.7 µM) in the assay with Candida tropicalis.
Broadly, the MFC is the lowest tested concentration that kills the fungus rather than only halting it. A higher MFC goes with less potent killing. For the molecule `CCCCCc1ccc(-c2ccc(O)cc2O)cc1`, the minimal inhibitory concentration (MIC) in the assay with Cryptococcus neoformans [1] is 0.5 µg/mL (≈ 1.95 µM); with Candida albicans it was 2 µg/mL (≈ 7.8 µM); with Aspergillus fumigatus it was 8 µg/mL (≈ 31.2 µM); with Candida tropicalis it was 2 µg/mL (≈ 7.8 µM). In addition, in the assay with Cryptococcus neoformans [2], the MFC turned out to be 0.5 µg/mL (≈ 1.95 µM). Further, the Selectivity ratio in the assay on Cryptococcus neoformans [3] turned out to be 1.
`COc1cc(-c2ccccc2)cc(OC(=O)C2CCCCC2)c1OC(=O)C1CCCCC1`: the minimal inhibitory concentration (MIC) in the assay on Cryptococcus neoformans [1], with Candida albicans, in the assay on Aspergillus fumigatus and in the assay on Candida tropicalis was more than 512 µg/mL in each case.
Take `Oc1cc(-c2ccccc2)cc(O)c1O`: the MIC in the assay on Cryptococcus neoformans [1] is 256 µg/mL (≈ 1270 µM); in the assay on Candida albicans, more than 512 µg/mL; with Aspergillus fumigatus it was more than 512 µg/mL; in the assay with Candida tropicalis it was more than 512 µg/mL.
`COc1cc(-c2ccccc2)cc(OC(C)=O)c1OC(C)=O`: the MIC with Cryptococcus neoformans [1], in the assay on Candida albicans, in the assay with Aspergillus fumigatus and in the assay with Candida tropicalis was more than 512 µg/mL in each case.
For the molecule `CCCc1ccc(-c2cc(O)c(O)c(OC)c2)cc1`, the minimum inhibitory concentration (MIC) with Cryptococcus neoformans [1] came to 4 µg/mL (≈ 15.5 µM); with Candida albicans, 16 µg/mL (≈ 61.9 µM); in the assay on Aspergillus fumigatus it was 64 µg/mL (≈ 248 µM); in the assay on Candida tropicalis it was 8 µg/mL (≈ 31 µM).
Taken in the same sequence, the figures for `COc1cc(-c2ccccc2)cc2c1OCO2` were more than 512 µg/mL, more than 512 µg/mL, 512 µg/mL (≈ 2240 µM) and more than 512 µg/mL.
Take `COc1cc(-c2ccc(O)cc2)cc(O)c1O`: the minimal inhibitory concentration (MIC) in the assay on Cryptococcus neoformans [1], with Candida albicans, in the assay on Aspergillus fumigatus and with Candida tropicalis was more than 512 µg/mL each time.
Turning to `CCCCCc1ccc(-c2ccc(O)c(O)c2O)cc1`, the MIC worked out at 4 µg/mL (≈ 14.7 µM) in the assay on Cryptococcus neoformans [1], 8 µg/mL (≈ 29.4 µM) with Candida albicans, 32 µg/mL (≈ 117 µM) in the assay with Aspergillus fumigatus and 4 µg/mL (≈ 14.7 µM) in the assay with Candida tropicalis.
For the molecule `CCc1ccccc1-c1cc(O)c(O)c(OC)c1`, the MIC is 64 µg/mL (≈ 262 µM) in the assay with Cryptococcus neoformans [1], 256 µg/mL (≈ 1050 µM) in the assay on Candida albicans, 128 µg/mL (≈ 524 µM) with Aspergillus fumigatus and 128 µg/mL (≈ 524 µM) in the assay with Candida tropicalis.
Take `CCCCc1ccc(-c2ccc(O)c(O)c2)cc1`: the minimum inhibitory concentration (MIC) turned out to be 0.5 µg/mL (≈ 2.06 µM) with Cryptococcus neoformans [1], 4 µg/mL (≈ 16.5 µM) with Candida albicans, 16 µg/mL (≈ 66 µM) in the assay with Aspergillus fumigatus and 4 µg/mL (≈ 16.5 µM) in the assay with Candida tropicalis.
Take `COc1cc(-c2ccccc2)cc(OC(=O)c2ccc(C)cc2)c1OC(=O)c1ccc(C)cc1`: the MIC with Cryptococcus neoformans [1], in the assay on Candida albicans, in the assay on Aspergillus fumigatus and in the assay with Candida tropicalis was more than 512 µg/mL each time.
In the case of `COc1cc(-c2ccc(C(C)(C)C)cc2)cc(O)c1O`, the MIC in the assay with Cryptococcus neoformans [1] was found to be 4 µg/mL (≈ 14.7 µM); in the assay with Candida albicans, 16 µg/mL (≈ 58.7 µM); in the assay on Aspergillus fumigatus, 64 µg/mL (≈ 235 µM); in the assay with Candida tropicalis it was 16 µg/mL (≈ 58.7 µM).
In the case of `COc1cc(-c2ccc(CCC#N)cc2)cc(O)c1O`, the MIC with Cryptococcus neoformans [1], in the assay on Candida albicans, with Aspergillus fumigatus and with Candida tropicalis was 512 µg/mL (≈ 1900 µM) each time.
As to `COc1cc(-c2ccccc2)cc(OCc2ccccc2)c1OCc1ccccc1`, the minimal inhibitory concentration (MIC) in the assay with Cryptococcus neoformans [1], in the assay on Candida albicans, in the assay on Aspergillus fumigatus and with Candida tropicalis was more than 512 µg/mL in each case.
Regarding `CCCCCCc1cccc(-c2cc(O)c(O)c(OC)c2)c1`, the minimal inhibitory concentration (MIC) with Cryptococcus neoformans [1] was 2 µg/mL (≈ 6.66 µM); in the assay on Candida albicans, more than 512 µg/mL; with Aspergillus fumigatus, 512 µg/mL (≈ 1700 µM); in the assay with Candida tropicalis, 8 µg/mL (≈ 26.6 µM).
Consider `CCCCCCCCc1ccc(-c2cc(O)c(O)c(OC)c2)cc1`, for which the MIC in the assay with Cryptococcus neoformans [1] was 4 µg/mL (≈ 12.2 µM); in the assay on Candida albicans it was more than 512 µg/mL; in the assay with Aspergillus fumigatus, more than 512 µg/mL; in the assay with Candida tropicalis it was more than 512 µg/mL.
With `C=CCOc1cc(-c2ccccc2)cc(OC)c1OCC=C`, the MIC in the assay with Cryptococcus neoformans [1], in the assay with Candida albicans, with Aspergillus fumigatus and in the assay on Candida tropicalis was more than 512 µg/mL in each case.
Take `CCCCCCCc1ccc(-c2cc(O)c(O)c(OC)c2)cc1`: the minimal inhibitory concentration (MIC) was 2 µg/mL (≈ 6.36 µM) in the assay with Cryptococcus neoformans [1], 512 µg/mL (≈ 1630 µM) in the assay with Candida albicans, more than 512 µg/mL in the assay with Aspergillus fumigatus and 512 µg/mL (≈ 1630 µM) in the assay with Candida tropicalis.
For the molecule `CCCCCc1ccc(-c2ccc(O)c(O)c2)cc1`, the minimum inhibitory concentration (MIC) with Cryptococcus neoformans [1] stood at 0.25 µg/mL (≈ 0.975 µM); with Candida albicans it was 4 µg/mL (≈ 15.6 µM); in the assay with Aspergillus fumigatus, 16 µg/mL (≈ 62.4 µM); in the assay on Candida tropicalis, 2 µg/mL (≈ 7.8 µM). This molecule came in with an MFC with Cryptococcus neoformans [2] of 0.5 µg/mL (≈ 1.95 µM). Also, the Selectivity ratio with Cryptococcus neoformans [3] came to 2.
Consider `CCCCC(=O)c1ccc(-c2cc(O)c(O)c(OC)c2)cc1`, for which the minimum inhibitory concentration (MIC) in the assay on Cryptococcus neoformans [1], in the assay on Candida albicans, with Aspergillus fumigatus and in the assay with Candida tropicalis was 512 µg/mL (≈ 1700 µM) each time.
For `COc1cc(-c2ccc(C3CCCCC3)cc2)cc(O)c1O`, the MIC in the assay on Cryptococcus neoformans [1] was 2 µg/mL (≈ 6.7 µM); in the assay with Candida albicans it was 512 µg/mL (≈ 1720 µM); in the assay on Aspergillus fumigatus it was more than 512 µg/mL; in the assay with Candida tropicalis, 512 µg/mL (≈ 1720 µM).
Turning to `COc1cc(-c2ccccc2)cc(OC)c1O` [AUCUPARIN], the MIC in the assay on Cryptococcus neoformans [1] was 64 µg/mL (≈ 278 µM); in the assay with Candida albicans it was more than 512 µg/mL; in the assay with Aspergillus fumigatus, more than 512 µg/mL; with Candida tropicalis it was more than 512 µg/mL.
In the case of `COc1cc(-c2cc(C(C)(C)C)cc(C(C)(C)C)c2)cc(O)c1O`, the MIC in the assay with Cryptococcus neoformans [1] is more than 512 µg/mL; in the assay with Candida albicans, more than 512 µg/mL; in the assay with Aspergillus fumigatus, 128 µg/mL (≈ 390 µM); in the assay on Candida tropicalis, more than 512 µg/mL.
Regarding `COc1cc(-c2ccccc2)cc(O)c1O`, the MIC in the assay on Cryptococcus neoformans [1] stood at 64 µg/mL (≈ 296 µM); in the assay with Candida albicans it was 128 µg/mL (≈ 592 µM); in the assay on Aspergillus fumigatus, 128 µg/mL (≈ 592 µM); in the assay on Candida tropicalis, 128 µg/mL (≈ 592 µM).
On to `CCCCCc1ccc(-c2cc(O)c(O)c(O)c2)cc1`, for which the MIC amounted to 2 µg/mL (≈ 7.34 µM) in the assay on Cryptococcus neoformans [1], 8 µg/mL (≈ 29.4 µM) in the assay with Candida albicans, 32 µg/mL (≈ 117 µM) with Aspergillus fumigatus and 4 µg/mL (≈ 14.7 µM) with Candida tropicalis.
Taken in the same sequence, the figures for `CCCCc1ccc(-c2cc(O)c(O)c(OC)c2)cc1` were 2 µg/mL (≈ 7.34 µM), 16 µg/mL (≈ 58.7 µM), 32 µg/mL (≈ 117 µM) and 4 µg/mL (≈ 14.7 µM).
Taken in the same sequence, the figures for `COc1cc(-c2ccc(CCBr)cc2)cc(O)c1O` were 8 µg/mL (≈ 24.8 µM), 32 µg/mL (≈ 99 µM), 128 µg/mL (≈ 396 µM) and 32 µg/mL (≈ 99 µM).
The matching figures for `COc1cc(-c2ccccc2F)cc(O)c1O`: 128 µg/mL (≈ 546 µM), 128 µg/mL (≈ 546 µM), 64 µg/mL (≈ 273 µM) and 128 µg/mL (≈ 546 µM).
On to `CCCCCc1ccc(-c2cccc(O)c2O)cc1`, for which the MIC came out at 1 µg/mL (≈ 3.9 µM) in the assay with Cryptococcus neoformans [1], 4 µg/mL (≈ 15.6 µM) in the assay with Candida albicans, 16 µg/mL (≈ 62.4 µM) with Aspergillus fumigatus and 2 µg/mL (≈ 7.8 µM) in the assay on Candida tropicalis.
Taken in the same sequence, the figures for `CCCCCc1ccc(-c2c(O)cccc2O)cc1` were 8 µg/mL (≈ 31.2 µM), 32 µg/mL (≈ 125 µM), 32 µg/mL (≈ 125 µM) and 32 µg/mL (≈ 125 µM).
The matching figures for `COc1cc(-c2ccc(C(C)C)cc2)cc(O)c1O`: 8 µg/mL (≈ 31 µM), 16 µg/mL (≈ 61.9 µM), 64 µg/mL (≈ 248 µM) and 16 µg/mL (≈ 61.9 µM).
Take `CCCCCc1ccc(-c2cc(O)c(O)c(OC)c2)cc1`: the minimal inhibitory concentration (MIC) in the assay with Cryptococcus neoformans [1] is 2 µg/mL (≈ 6.98 µM); in the assay on Candida albicans it was 8 µg/mL (≈ 27.9 µM); in the assay on Aspergillus fumigatus, 512 µg/mL (≈ 1790 µM); in the assay on Candida tropicalis it was 2 µg/mL (≈ 6.98 µM).
Consider `CCCCCCc1ccc(-c2cc(O)c(O)c(OC)c2)cc1`, for which the MIC was 1 µg/mL (≈ 3.33 µM) in the assay with Cryptococcus neoformans [1], 512 µg/mL (≈ 1700 µM) in the assay on Candida albicans, more than 512 µg/mL in the assay on Aspergillus fumigatus and 4 µg/mL (≈ 13.3 µM) in the assay on Candida tropicalis.

(Values after ChEMBL document CHEMBL5634120, “Natural phytoalexins inspired the discovery of new biphenyls as potent antifungal agents for treatment of invasive fungal infections” (Eur J Med Chem, 2023).)
